Assays:
[1] = system: Rattus norvegicus; assay: Hypotensive activity in spontaneously hypertensive […] rat at 0.01 mg/kg, iv assessed as reduction in mean arterial pressure measured every 30 seconds for 7 mins following compound injection by tail-cuff method; assay type: functional, Artery
[2] = Half life in rat plasma; assay type: ADME, cell-free
[3] = system: Rattus norvegicus; assay: Hypotensive activity in iv dosed spontaneously hypertensive […] rat assessed as reduction in mean arterial pressure measured every 30 seconds for 7 mins following compound injection by tail-cuff method; assay type: functional, organism-based; conditions: Artery
[4] = system: Rattus norvegicus; assay: Hypotensive activity in spontaneously hypertensive […] rat at 1 mg/kg, iv assessed as reduction in mean arterial pressure measured every 30 seconds for 7 mins following compound injection by tail-cuff method; assay type: functional, Artery
[5] = system: Rattus norvegicus; assay: Hypotensive activity in spontaneously hypertensive […] rat at 0.1 mg/kg, iv assessed as reduction in mean arterial pressure measured every 30 seconds for 7 mins following compound injection by tail-cuff method; assay type: functional, Artery

half-life [2]: 14 min
SMILES: CSCC[C@H](NC(=O)[C@@H]1CCCN1C(=O)CNC(=O)[C@H](CCCCN)NC(=O)[C@H](Cc1cnc[nH]1)NC(=O)[C@H](CO)NC(=O)[C@H](CC(C)C)NC(=O)[C@H](CCCNC(=N)N)NC(=O)[C@@H]1CCCN1C(=O)[C@H](CCCNC(=N)N)NC(=O)[C@@H]1CCC(=O)N1)C(=O)N1CCC[C@H]1C(=O)N[C@@H](Cc1ccccc1)C(=O)O
Activity [1]: 20 mmHg
Activity [3]: Dose-dependent effect
Activity [4]: 40 mmHg
Activity [5]: 30 mmHg
